Experiment: excess molar enthalpy (molar enthalpy of mixing); xn = mol fraction of the nth substance listed
Conditions: 298.15 K, 101.3 kPa, Liquid

CCCCCCCCC [nonane] + COC(C)(C)C
Conditions | excess molar enthalpy [kJ/mol]
x2 = 0.0816 | 0.131
x2 = 0.1472 | 0.225
x2 = 0.1747 | 0.265
x2 = 0.2383 | 0.345
x2 = 0.2404 | 0.345
x2 = 0.3312 | 0.428
x2 = 0.3912 | 0.457
x2 = 0.4867 | 0.486
x2 = 0.6601 | 0.437
x2 = 0.7157 | 0.392
x2 = 0.7399 | 0.371
x2 = 0.7773 | 0.337
x2 = 0.8129 | 0.305
x2 = 0.8723 | 0.231
x2 = 0.895 | 0.2
x2 = 0.9235 | 0.173
x2 = 0.9285 | 0.141
x2 = 0.9459 | 0.126
x2 = 0.9573 | 0.104
x2 = 0.9632 | 0.082

CCCCCCCCC [nonane] + CCCCCO
Conditions | excess molar enthalpy [kJ/mol]
x2 = 0.0545 | 0.414
x2 = 0.0997 | 0.516
x2 = 0.1605 | 0.59
x2 = 0.2245 | 0.648
x2 = 0.2862 | 0.681
x2 = 0.3535 | 0.694
x2 = 0.4025 | 0.689
x2 = 0.4455 | 0.687
x2 = 0.4998 | 0.67
x2 = 0.5489 | 0.637
x2 = 0.6006 | 0.593
x2 = 0.6527 | 0.541
x2 = 0.7058 | 0.469
x2 = 0.7524 | 0.41
x2 = 0.7962 | 0.33
x2 = 0.8478 | 0.257
x2 = 0.8935 | 0.172
x2 = 0.9382 | 0.086
